Data: PubChem BioAssay (NCI)
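96-well plates; 48 h exposure; 5 concentrations. Endpoints by linear interpolation between flanking doses. Not reached: highest tested concentration assigned. Definition used: TGI = concentration required for complete inhibition of growth.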

Columns and labels:
Assay in all cases: inhibition of tumour cell growth, NCI panel, 48 h
786-0 renal = system: 786-0 renal
A498 renal = system: A498 renal
ACHN renal = system: ACHN renal
CAKI-1 renal = system: CAKI-1 renal
CCRF-CEM leukemia = system: CCRF-CEM leukemia
COLO 205 colon = system: COLO 205 colon
DU-145 prostate = system: DU-145 prostate
EKVX NSCLC = system: EKVX NSCLC
HCC-2998 colon = system: HCC-2998 colon
HCT-15 colon = system: HCT-15 colon
HL-60(TB) leukemia = system: HL-60(TB) leukemia
HOP-62 NSCLC = system: HOP-62 NSCLC
HOP-92 NSCLC = system: HOP-92 NSCLC
HS 578T breast = system: HS 578T breast
HT29 colon = system: HT29 colon
IGROV1 ovarian = system: IGROV1 ovarian
K-562 leukemia = system: K-562 leukemia
KM12 colon = system: KM12 colon
LOX IMVI melanoma = system: LOX IMVI melanoma
M14 melanoma = system: M14 melanoma
MALME-3M melanoma = system: MALME-3M melanoma
MCF7 breast = system: MCF7 breast
MDA-MB-231 breast = system: MDA-MB-231 breast
MDA-MB-435 = system: MDA-MB-435
MDA-N = system: MDA-N
MOLT-4 leukemia = system: MOLT-4 leukemia
NCI-H226 lung = system: NCI-H226 lung
NCI-H23 lung = system: NCI-H23 lung
NCI-H460 lung = system: NCI-H460 lung
NCI-H522 lung = system: NCI-H522 lung
NCI/ADR-RES ovarian = system: NCI/ADR-RES ovarian
OVCAR-3 ovarian = system: OVCAR-3 ovarian
OVCAR-4 ovarian = system: OVCAR-4 ovarian
OVCAR-5 ovarian = system: OVCAR-5 ovarian
OVCAR-8 ovarian = system: OVCAR-8 ovarian
PC-3 prostate = system: PC-3 prostate
RPMI-8226 leukemia = system: RPMI-8226 leukemia
RXF 393 renal = system: RXF 393 renal
SF-268 CNS = system: SF-268 CNS
SF-295 CNS = system: SF-295 CNS
SF-539 CNS = system: SF-539 CNS
SK-MEL-2 melanoma = system: SK-MEL-2 melanoma
SK-MEL-28 melanoma = system: SK-MEL-28 melanoma
SK-MEL-5 melanoma = system: SK-MEL-5 melanoma
SK-OV-3 ovarian = system: SK-OV-3 ovarian
SN12C renal = system: SN12C renal
SNB-19 CNS = system: SNB-19 CNS
SNB-75 CNS = system: SNB-75 CNS
SR leukemia = system: SR leukemia
SW-620 colon = system: SW-620 colon
T-47D breast = system: T-47D breast
TK-10 renal = system: TK-10 renal
U251 CNS = system: U251 CNS
UACC-257 melanoma = system: UACC-257 melanoma
UO-31 renal = system: UO-31 renal

Measured: TGI

COC12c3ccccc3-c3ccccc3C1[C@@H](C(=O)O)[C@H]2C(=O)O (stereo not given in full)
> 10 µM: 786-0 renal | A498 renal | ACHN renal | CAKI-1 renal | CCRF-CEM leukemia | COLO 205 colon | DU-145 prostate | EKVX NSCLC | HCC-2998 colon | HCT-15 colon | HL-60(TB) leukemia | HOP-62 NSCLC | HOP-92 NSCLC | HS 578T breast | HT29 colon | IGROV1 ovarian | K-562 leukemia | KM12 colon | LOX IMVI melanoma | M14 melanoma | MALME-3M melanoma | MCF7 breast | MDA-MB-231 breast | MDA-MB-435 | MDA-N | MOLT-4 leukemia | NCI-H226 lung | NCI-H23 lung | NCI-H460 lung | NCI-H522 lung | NCI/ADR-RES ovarian | OVCAR-3 ovarian | OVCAR-4 ovarian | OVCAR-5 ovarian | OVCAR-8 ovarian | PC-3 prostate | RPMI-8226 leukemia | RXF 393 renal | SF-268 CNS | SF-295 CNS | SF-539 CNS | SK-MEL-2 melanoma | SK-MEL-28 melanoma | SK-MEL-5 melanoma | SK-OV-3 ovarian | SN12C renal | SNB-19 CNS | SNB-75 CNS | SR leukemia | SW-620 colon | T-47D breast | TK-10 renal | U251 CNS | UACC-257 melanoma | UO-31 renal
